From PubChem BioAssay (NCI)
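Method: 48-hour compound exposure of cells in 96-well plates, five concentrations, linear interpolation of endpoints. At the GI50, growth is halved. At the TGI there is no net growth.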

What was measured:
Assay in all cases: NCI anticancer screen, dose series, 48 h; in the data active = GI50 below about 0.43 µM; inactive = the rest
K-562 leukemia = tested on: K-562 leukemia
HT29 colon = tested on: HT29 colon
SNB-75 CNS = tested on: SNB-75 CNS
OVCAR-5 ovarian = tested on: OVCAR-5 ovarian
HCT-15 colon = tested on: HCT-15 colon
KM12 colon = tested on: KM12 colon
HS 578T breast = tested on: HS 578T breast
UACC-257 melanoma = tested on: UACC-257 melanoma
SK-OV-3 ovarian = tested on: SK-OV-3 ovarian
MDA-MB-435 = tested on: MDA-MB-435
HCC-2998 colon = tested on: HCC-2998 colon
RPMI-8226 leukemia = tested on: RPMI-8226 leukemia
HL-60(TB) leukemia = tested on: HL-60(TB) leukemia
NCI-H226 lung = tested on: NCI-H226 lung
IGROV1 ovarian = tested on: IGROV1 ovarian
SNB-19 CNS = tested on: SNB-19 CNS
MCF7 breast = tested on: MCF7 breast
UACC-62 melanoma = tested on: UACC-62 melanoma
SK-MEL-2 melanoma = tested on: SK-MEL-2 melanoma
UO-31 renal = tested on: UO-31 renal
NCI/ADR-RES ovarian = tested on: NCI/ADR-RES ovarian
DU-145 prostate = tested on: DU-145 prostate
HCT-116 colon = tested on: HCT-116 colon
PC-3 prostate = tested on: PC-3 prostate
COLO 205 colon = tested on: COLO 205 colon
SF-268 CNS = tested on: SF-268 CNS
BT-549 breast = tested on: BT-549 breast
U251 CNS = tested on: U251 CNS
T-47D breast = tested on: T-47D breast
SK-MEL-5 melanoma = tested on: SK-MEL-5 melanoma
OVCAR-8 ovarian = tested on: OVCAR-8 ovarian
MOLT-4 leukemia = tested on: MOLT-4 leukemia
ACHN renal = tested on: ACHN renal
CAKI-1 renal = tested on: CAKI-1 renal
TK-10 renal = tested on: TK-10 renal
786-0 renal = tested on: 786-0 renal
RXF 393 renal = tested on: RXF 393 renal
CCRF-CEM leukemia = tested on: CCRF-CEM leukemia
SN12C renal = tested on: SN12C renal
NCI-H23 lung = tested on: NCI-H23 lung
LOX IMVI melanoma = tested on: LOX IMVI melanoma
MDA-MB-231 breast = tested on: MDA-MB-231 breast
SF-539 CNS = tested on: SF-539 CNS
EKVX NSCLC = tested on: EKVX NSCLC
HOP-62 NSCLC = tested on: HOP-62 NSCLC
SK-MEL-28 melanoma = tested on: SK-MEL-28 melanoma
OVCAR-3 ovarian = tested on: OVCAR-3 ovarian
SW-620 colon = tested on: SW-620 colon
SF-295 CNS = tested on: SF-295 CNS
HOP-92 NSCLC = tested on: HOP-92 NSCLC
A498 renal = tested on: A498 renal
A549 NSCLC = tested on: A549 NSCLC
OVCAR-4 ovarian = tested on: OVCAR-4 ovarian
M14 melanoma = tested on: M14 melanoma
NCI-H522 lung = tested on: NCI-H522 lung
MALME-3M melanoma = tested on: MALME-3M melanoma
NCI-H460 lung = tested on: NCI-H460 lung

CC1=NN(c2nc(N)nc(CO)n2)C(C)(C)C1
> 100 µM: TGI (K-562 leukemia) | TGI (HT29 colon) | TGI (SNB-75 CNS) | TGI (OVCAR-5 ovarian) | TGI (HCT-15 colon) | TGI (KM12 colon) | TGI (HS 578T breast) | TGI (UACC-257 melanoma) | TGI (SK-OV-3 ovarian) | TGI (MDA-MB-435) | TGI (HCC-2998 colon) | TGI (RPMI-8226 leukemia) | TGI (HL-60(TB) leukemia) | TGI (NCI-H226 lung) | TGI (IGROV1 ovarian) | TGI (SNB-19 CNS) | TGI (MCF7 breast) | TGI (UACC-62 melanoma) | TGI (SK-MEL-2 melanoma) | TGI (UO-31 renal) | TGI (NCI/ADR-RES ovarian) | TGI (DU-145 prostate) | TGI (HCT-116 colon) | TGI (PC-3 prostate) | TGI (COLO 205 colon) | TGI (SF-268 CNS) | TGI (BT-549 breast) | TGI (U251 CNS) | TGI (T-47D breast) | TGI (SK-MEL-5 melanoma) | TGI (OVCAR-8 ovarian) | TGI (MOLT-4 leukemia) | TGI (ACHN renal) | TGI (CAKI-1 renal) | TGI (TK-10 renal) | TGI (786-0 renal) | TGI (RXF 393 renal) | TGI (CCRF-CEM leukemia) | TGI (SN12C renal) | TGI (NCI-H23 lung) | TGI (LOX IMVI melanoma) | TGI (MDA-MB-231 breast) | TGI (SF-539 CNS) | TGI (EKVX NSCLC) | TGI (HOP-62 NSCLC) | TGI (SK-MEL-28 melanoma) | TGI (OVCAR-3 ovarian) | TGI (SW-620 colon) | TGI (SF-295 CNS) | TGI (HOP-92 NSCLC) | TGI (A498 renal) | TGI (A549 NSCLC) | TGI (OVCAR-4 ovarian) | TGI (M14 melanoma) | TGI (NCI-H522 lung)

COC(=O)c1c(C)nc(C)c2c1C(=O)C(Br)=C(NCc1ccccc1)C2=O
3 µM: TGI (OVCAR-4 ovarian)
10.5 µM: TGI (HCC-2998 colon)
6.09 µM: TGI (NCI-H522 lung)
11.5 µM: TGI (NCI-H460 lung)
2.93 µM: TGI (UACC-62 melanoma)
3.63 µM: TGI (COLO 205 colon)
15.4 µM: TGI (BT-549 breast)
7.9 µM: TGI (OVCAR-5 ovarian)
17.3 µM: TGI (A498 renal)
10.9 µM: TGI (PC-3 prostate)
7.24 µM: TGI (OVCAR-8 ovarian)
8.4 µM: TGI (MDA-MB-231 breast)
7.22 µM: TGI (HCT-116 colon)
6.64 µM: TGI (A549 NSCLC)
3.45 µM: TGI (SN12C renal)
5.78 µM: TGI (HOP-92 NSCLC)
18.7 µM: TGI (CAKI-1 renal)
5.19 µM: TGI (NCI-H23 lung)
7.96 µM: TGI (HT29 colon)
6.16 µM: TGI (OVCAR-3 ovarian)
13.4 µM: TGI (KM12 colon)
36.8 µM: TGI (CCRF-CEM leukemia)
8.26 µM: TGI (HCT-15 colon)
10.8 µM: TGI (MOLT-4 leukemia) | TGI (LOX IMVI melanoma) | TGI (HOP-62 NSCLC)
9.69 µM: TGI (RXF 393 renal)
9.23 µM: TGI (SNB-19 CNS)
8.16 µM: TGI (NCI/ADR-RES ovarian)
> 100 µM: TGI (K-562 leukemia) | TGI (HS 578T breast)
18 µM: TGI (NCI-H226 lung)
13 µM: TGI (DU-145 prostate)
11.7 µM: TGI (RPMI-8226 leukemia)
4.81 µM: TGI (M14 melanoma)
16.3 µM: TGI (786-0 renal)
10.4 µM: TGI (SF-295 CNS)
9.97 µM: TGI (ACHN renal)
5.35 µM: TGI (EKVX NSCLC)
2.85 µM: TGI (MALME-3M melanoma) | TGI (SK-MEL-5 melanoma)
8.34 µM: TGI (U251 CNS)
8.01 µM: TGI (SF-539 CNS)
3.29 µM: TGI (MCF7 breast)
10.7 µM: TGI (UO-31 renal) | TGI (SW-620 colon)
3.38 µM: TGI (MDA-MB-435)
21.9 µM: TGI (TK-10 renal)
inactive: GI50 (K-562 leukemia) 3.36 µM | GI50 (HT29 colon) 2.97 µM | GI50 (OVCAR-5 ovarian) 3.11 µM | GI50 (HCT-15 colon) 2.76 µM | GI50 (KM12 colon) 2.93 µM | GI50 (HS 578T breast) 10.8 µM | GI50 (UACC-257 melanoma) 1.62 µM | GI50 (MALME-3M melanoma) 1.47 µM | GI50 (SK-OV-3 ovarian) 6.2 µM | GI50 (MDA-MB-435) 1.86 µM | GI50 (HCC-2998 colon) 3.4 µM | GI50 (RPMI-8226 leukemia) 3.24 µM | GI50 (NCI-H226 lung) 4.01 µM | GI50 (IGROV1 ovarian) 2.05 µM | GI50 (SNB-19 CNS) 3.04 µM | GI50 (MCF7 breast) 1.3 µM | GI50 (NCI-H460 lung) 2.94 µM | GI50 (UACC-62 melanoma) 1.41 µM | GI50 (SK-MEL-2 melanoma) 2.52 µM | GI50 (UO-31 renal) 2.41 µM | GI50 (NCI/ADR-RES ovarian) 2.83 µM | GI50 (DU-145 prostate) 4.26 µM | GI50 (HCT-116 colon) 2.5 µM | GI50 (PC-3 prostate) 2.73 µM | GI50 (COLO 205 colon) 1.7 µM | GI50 (SF-268 CNS) 3.46 µM | GI50 (BT-549 breast) 4.09 µM | GI50 (U251 CNS) 2.74 µM | GI50 (T-47D breast) 2.26 µM | GI50 (SK-MEL-5 melanoma) 1.47 µM | GI50 (OVCAR-8 ovarian) 2.51 µM | GI50 (MOLT-4 leukemia) 3.09 µM | GI50 (ACHN renal) 3.08 µM | GI50 (CAKI-1 renal) 5.66 µM | GI50 (TK-10 renal) 10.1 µM | GI50 (786-0 renal) 4.65 µM | GI50 (RXF 393 renal) 3.08 µM | GI50 (CCRF-CEM leukemia) 3.11 µM | GI50 (SN12C renal) 1.49 µM | GI50 (NCI-H23 lung) 1.89 µM | GI50 (LOX IMVI melanoma) 2.45 µM | GI50 (MDA-MB-231 breast) 2.11 µM | GI50 (SF-539 CNS) 2.85 µM | GI50 (EKVX NSCLC) 2.12 µM | GI50 (HOP-62 NSCLC) 3.12 µM | GI50 (SK-MEL-28 melanoma) 5.79 µM | GI50 (OVCAR-3 ovarian) 2.27 µM | GI50 (SW-620 colon) 3.39 µM | GI50 (SF-295 CNS) 3.04 µM | GI50 (HOP-92 NSCLC) 2.46 µM | GI50 (A498 renal) 4.48 µM | GI50 (A549 NSCLC) 2.56 µM | GI50 (OVCAR-4 ovarian) 1.55 µM | GI50 (M14 melanoma) 2.06 µM | GI50 (NCI-H522 lung) 2.25 µM
13.5 µM: TGI (SF-268 CNS)
5 µM: TGI (T-47D breast)
17.5 µM: TGI (SK-MEL-28 melanoma)
3.19 µM: TGI (UACC-257 melanoma)
5.45 µM: TGI (IGROV1 ovarian)
19.2 µM: TGI (SK-OV-3 ovarian)
6.63 µM: TGI (SK-MEL-2 melanoma)
